This note sets out measurements from patent US10660967B2, “Curcumin conjugates and methods of use thereof” (priority 2016, dated 2020).

Molecules are shown by their SMILES. Like-named read-outs stand apart in the source and are kept apart here.

Assay [1] concerns PHA-stimulated splenocytes. The assay is described as follows: Proliferative response of PHA-stimulated splenocytes (MTT assay). The assay is classed as cell-based. The settings on record: PHA 5 μg/ml, 72 hr; compounds at 5 μM (method says 10 μM); ratio of O.D. versus vehicle control. In a few lines: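 Freshly prepared splenocytes (1×10^6 cells/well) were cultured for 72 h at 37° C with compound at 10 μM final, with or without PHA (5 μg/ml). Viability was read by MTT (4 h), with absorbance at 570 nm against 690 nm reference. Stimulation index is the OD ratio of treated versus vehicle cultures.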

Assay [2] deals with Salmonella typhi ATCC19430. Description: Antimicrobial MIC, agar dilution. It counts as cell-based. The note with it: Salmonella enterica, read-out: Minimum inhibitory concentration (MIC). On the technique in general: In agar dilution the substance is mixed into plates at graded concentrations.
Assay [3] has as its system HCT116 (colon) carcinoma cell line. The assay is described as follows: Anti-tumor properties, MTT. It counts as cell-based. The settings on record: Homo sapiens, HCT-116. The method in brief:
(§1)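 Cells seeded at 10×10^3 per well for 24 h, then exposed to compound in serum-free medium (final up to 100 μM, 0.5% DMSO vehicle) for 72 h in triplicate. Viability by MTT reduction (4 h, SDS solubilised), absorbance 595 nm/ref 620 nm; IC50 from survival curves.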

Assay [4] has as its system HepG2 (hepatocellular) carcinoma cell line. Description: Anti-tumor properties, MTT. It counts as cell-based. The note with it: Homo sapiens. The method in brief: as §1
In assay [5] the test system is MCF7 (breast) carcinoma cell line. The assay is described as follows: Anti-tumor properties, MTT. The assay is classed as cell-based. The settings on record: Homo sapiens. The method in brief: as §1
In assay [6] the test system is Staphylococcus aureus ATCC25923. The assay is described as follows: Antimicrobial MIC, agar dilution.
In assay [7] the test system is Pseudomonas aeruginosa ATCC27853. The assay is described as follows: Antimicrobial MIC, agar dilution.
Assay [8] concerns Candida albicans (local isolate). Description: Antimicrobial MIC, agar dilution. The settings on record: Candida albicans, read-out: Minimum inhibitory concentration (MIC).
The mark [9] stands for this setting: ATCC25923, 18 h, read-out: Minimum inhibitory concentration (MIC).
Where [10] appears, read: ATCC25923, read-out: Minimum inhibitory concentration (MIC).
[11] abbreviates: ATCC27853, 18 h, read-out: Minimum inhibitory concentration (MIC).
Setting [12] is: ATCC27853, read-out: Minimum inhibitory concentration (MIC).

As for `COc1cc(/C=C/C(=O)CC(=O)/C=C/c2ccc(OC(=O)[C@H](N)CCSC)c(OC)c2)ccc1OC(=O)[C@H](N)CCSC.Cl.Cl` [HCl-D-Met-Cur, (2R,2′R)-1,1′-((((1E,6E)-3,5-dioxohepta-1,6-diene-1,7-diyl)bis(2-methoxy-4,1-phenylene))bis(oxy))bis(4-(methylthio)-1-oxobutan-2-aminium) chloride], the “Stimulation Index (average ± SD)” value in assay [1] was determined as 1.01 ± 0.15. In addition, the MIC in assay [2] (18 h) stood at 0.25 µg/mL; in assay [2] it was 0.355 µM; in assay [6] (setting [9]) it was 0.125 µg/mL; in assay [6] (setting [10]) it was 0.178 µM; in assay [7] (setting [11]), 1 µg/mL; in assay [7] (setting [12]), 1.42 µM. For the same compound, the MIC in assay [8] (18 h) stood at 1 µg/mL; in assay [8], 1.42 µM. Further, the 50% inhibitory concentration (IC50) in assay [3] (read-out: IC50 (μM) HCT116 (colon)) worked out at 46.7 µM; in assay [4] (HepG2, read-out: IC50 (μM) HepG2 (liver)) it was 43.6 µM; in assay [5] (MCF7, read-out: IC50 (μM) MCF7 (breast)), 10.2 µM.
For `COc1cc(/C=C/C(=O)CC(=O)/C=C/c2ccc(OC(=O)C(C)NC(=O)OCc3ccccc3)c(OC)c2)ccc1OC(=O)C(C)NC(=O)OCc1ccccc1` (racemic) [Cbz-DL-Ala-Cur, ((1E,6E)-3,5-dioxohepta-1,6-diene-1,7-diyl)bis(2-methoxy-4,1-phenylene) bis(2-(((benzyloxy)carbonyl)amino)propanoate)], the “Stimulation Index (average ± SD)” value in assay [1] came to 1.18 ± 0.09. The MIC in assay [2] (18 h) is 0.5 µg/mL; in assay [2] it was 0.642 µM; in assay [6] (setting [9]) it was 0.5 µg/mL; in assay [6] (setting [10]) it was 0.642 µM; in assay [7] (setting [11]) it was 0.25 µg/mL; in assay [7] (setting [12]) it was 0.321 µM. Besides, the MIC in assay [8] (18 h) amounted to 0.5 µg/mL; in assay [8], 0.642 µM. The activity at 100 µM in assay [3] (HCT116, 100 μM, 72 h, read-out: Percentage growth of tumor cell lines treated with the tested compounds (±SD)) stood at 92 ± 2.1%; in assay [4] (HepG2, 100 μM, 72 h, read-out: Percentage growth of tumor cell lines treated with the tested compounds (±SD)) it was 82.9 ± 4.1%; in assay [5] (MCF7, 100 μM, 72 h, read-out: Percentage growth of tumor cell lines treated with the tested compounds (±SD)), 62.7 ± 4.7%.

As a reminder, the IC50 is the concentration that inhibits the measured activity by half.
